Here are results for three molecules from patent US11524950B2, “Treatment of immune-related and inflammatory diseases” (Celgene Corporation, priority 2012, dated 2022).

Structures are written as SMILES. Where two headings read alike, the source gives them in different places. A value given as a limit tells only on which side of the number the result lay.

One assay deals with MDC. The experiment in a line: LPS-stimulated hPBMC cytokine production: MDC. Format: cell-based. The conditions noted are these: Homo sapiens; LPS 1 ng/ml, 18 hours. How it is done: (§1) 50 ml human buffy coat was aliquoted 25 ml each into two 50 ml conical tubes and 25 ml sterile HBSS was added to each conical tube. The tubes were gently mixed by inverting. Fifteen ml of room temperature Ficoll-Paque Plus (GE Healthcare (location); cat #17-1440-02) was aliquoted into four 50 ml conical tubes. Then 25 ml of the Buffy coat/HBSS mixture was layered gently and slowly on top of the Ficoll. The samples were centrifuged at 450 rpm for 35 minutes. The top layered containing plasma was pipetted off and discarded. The interface containing mononuclear cells was transferred into two 50 ml conical tubes. Both conical tubes were filled to total volume of 50 ml with HBSS and centrifuged at 1200 rpm for 10 minutes. The cells were washed again in HBSS and spun at 1000 rpm for 10 minutes. Cell pellet was resuspended with 20 ml RPMI complete medium (RPMI/5% human sera/1× pen/strep/glut) and counted.
(§2) One hundred μl (2×10^6/ml) of hPBMCs were added to each well of a 96 well flat-bottom plate (final cell count=2×10^5/well) and incubated at 37° C. for 1 hour. […] compound was added to each test well and twenty μl medium containing 2.5% DMSO was added to each control well ([DMSO]final=0.25%) and plate was incubated for 1 hour at 37° C. Cells were then stimulated with […] 2.5 ng/ml LPS ([LPS]final=1 ng/ml) and incubated for 18 hours at 37° C.
(§3) 50 μl supernatant from each well was transferred into 3 new round-bottomed 96 well plates and stored at −20° C. for Luminex analysis. Duplicate wells were performed for each sample.
(§4) Supernatant samples were analyzed for cytokines in multiplex format according to the manufacturer's instructions (Millipore, Billerica, Ma 01821) using a Luminex IS100 instrument. IL-12 and GM-CSF analyses were done in a two-plex format using neat supernatants while all other cytokines were done in a multiplex format using supernatants diluted 1:20. Data analysis was performed using Upstate Beadview software. […] The IC50 were performed using GraphPad Prism v5.00. […]

The test system of a further assay is MIP-1α. The experiment in a line: LPS-stimulated hPBMC cytokine production: MIP-1α. Format: cell-based. To be noted: Homo sapiens. On the procedure:
as §1, §2, §3, §4

A further assay relates to TNF-α. The experiment in a line: LPS-stimulated hPBMC cytokine production: TNF-α. It is filed as cell-based. To be noted: Homo sapiens; LPS 1 ng/ml, 18 hours. How it is done: as §1, §2, §3, §4
In another assay the test system is IL-10. In words: LPS-stimulated hPBMC cytokine production: IL-10 enhancement. The conditions noted are these: at 0.1 μM. It is filed as cell-based, human. On the procedure:
as §1, §2, §3, §4

The next assay deals with NK cell IFN-γ production. The experiment in a line: NK IgG-induced interferon-gamma (IFN-gamma) assay. It is filed as cell-based. To be noted: Homo sapiens, 48 h. How it is done:
NK cells from healthy donors were isolated from buffy coat blood by negative selection using the RosetteSep NK cell enrichment cocktail (Stem Cell Technologies, Vancouver, BC) prior to Ficoll-Hypaque (Fisher Scientific Co LLC, PA) density gradient centrifugation following the manufacturers' instructions. CD56+NK cells were isolated to ˜85% purity, as determined by flow cytometry (BD Biosciences, CA).
Ninety-six-well flat-bottom plates were coated with 100 μg/mL of human IgG (Sigma) overnight at 4° C. The next day, unbound IgG was washed away with cold 1×PBS. NK cells were then plated in the IgG-coated 96-well plates at 2×10^5 cells per well in 180 μL RPMI-1640 Media and 10 ng/mL of rhIL-2 (R & D Systems, MN) was added. Test compounds were added in a volume of […]. Final concentrations of test compounds were 0.0001, 0.001, 0.01, 0.1, 1, or 10 μM. Final DMSO concentrations were 0.25%. After 48 hours, the supernatants were harvested and analyzed by ELISA for IFN-γ production.
Data used to determine the ability of test compounds to enhance NK cell IFN-γ production in response to immobilized IgG and rhIL-2 stimulation was analyzed for each donor using GraphPad Prism v5.0 software.

In assay [1] the test system is Human umbilical vascular endothelial cells. The experiment in a line: Human umbilical vascular endothelial cells proliferation assay. It is filed as cell-based. To be noted: for IC50: Homo sapiens, Endothelial cell. How it is done: Human Umbilical Vascular Endothelial Cells Proliferation Assay: Human umbilical vascular endothelial cells were thawed and grown in EGM2 medium until passage 3 to 6 for all proliferation assays. Human umbilical vascular endothelial cells were trypsinized, washed with 20% FBS/M199 medium and plated with the same medium at 10^4 cells/100 μL per well to 96-well cell culture plates. The plates were incubated overnight at 37° C. to allow cells to adhere. The cells were then starved in 1% FBS/M199 medium for 18 hours after washing with the same medium 3 times. For optimization of the concentration of the growth factors in the HUVEC proliferation assay, 100 μL/well of the 2× serial diluted growth factors, starting at 100 ng/mL, were added to HUVECs in duplicate for 72 hours at 37° C. in a humidified cell culture incubator with 5% CO2. For analysis of test compounds, a serial dilution of the test compounds in 0.4% DMSO/1% FBS/M199 medium in duplicate was made from the 10 mM stock. Fifty microliters per well of the serially diluted test compounds (10, 1.0, 0.1, 0.01, 0.001, 0.0001, 0.00001 μM) were added to the cells for 1 to 2 hours at 37° C. The final DMSO concentration in the cells is 0.1%. Then 50 μL of 4× final concentration of relative growth factors was added to each well in duplicate for 72 hours at 37° C. in a humidified cell culture incubator with 5% CO2. Thymidine incorporation was measured by adding one microcurie of 3H-thymidine (Amersham) in 20 μL medium to each well and incubated at 37° C. in a humidified cell culture incubator with 5% CO2 for 5 to 6 hours. The cells were then trypsinized and harvested onto UniFilter GF/C filter plates (Perkin Elmer) by using the cell harvester (Tomtec). After the plates were air dried, 20 µL/well of Microscint 20 (Packard) was added then the plates were analyzed in TopCount NXT (Packard). Each well was counted for one minute. The experiments were performed in duplicate in each of 3 donors.
The percentage inhibition of cell proliferation, tube formation, migration, and invasion was calculated by subtracting the result for unstimulated DMSO control from test sample results, averaging all replicates, and normalizing to the growth factor-stimulated DMSO control (0% inhibition). The IC50 values were calculated by using GraphPad Prism 5.0.

[2] abbreviates: read-out: bFGF (10 ng/mL) IC50 Values (μM), bFGF-induced proliferation.
The mark [3] stands for this setting: HGF-induced proliferation, read-out: HGF (25 ng/mL) IC50 Values.
Where [4] appears, read: VEGF-induced proliferation, read-out: VEGF (25 ng/mL) IC50 Values.
Where [5] appears, read: LPS 1 ng/ml, 18 hours, read-out: MIP-1α IC50.

One may read the EC50 as the concentration giving half of the maximal effect. Low values mean greater potency, high ones weaker potency. For the molecule `O=C1CCC(N2Cc3c(OCc4ccc(CN5CCOCC5)cc4)cccc3C2=O)C(=O)N1` (racemic) [Racemate, 3-[4-(4-morphlin-4-ylmethylbenzyloxy)-1-oxo-1,3-dihydro-isoindo-2-yl]piperidine-2,6-dione], the IC50 in the assay with MDC was 2.6 nM; with MIP-1α (18 h, read-out: MIP-1α IC50 (μM)), 0.19 µM; in the assay with TNF-α it was 1.8 nM; in assay [1] (setting [2]) it was 99 µM; in assay [1] (setting [3]), 24 µM; in assay [1] (setting [4]) it was more than 100 µM. Moreover, in the assay with IL-10, the “IL-10 Mean % of Control” value was 371 % of control. In addition, the concentration giving a half-maximal response (EC50) in the assay on NK cell IFN-γ production came out at 37 nM. Besides, the “VEGF-, bFGF-, or HGF-induced HUVEC proliferation” value in assay [1] is “did not inhibit”. Also, in assay [1] (bFGF-treated HUVECs), the “concentrations with significant enhancement of proliferation” value fell in the range of 0.01 to 1 µM.

Regarding `O=C1CC[C@@H](N2Cc3c(OCc4ccc(CN5CCOCC5)cc4)cccc3C2=O)C(=O)N1` [R-enantiomer, (R)-3-[4-(4-morphlin-4-ylmethylbenzyloxy)-1-oxo-1,3-dihydro-isoindo-2-yl]piperidine-2,6-dione], the IC50 in the assay with MDC is 12 nM; with MIP-1α (setting [5]), 0.45 µM; in the assay with TNF-α it was 9.5 nM; in assay [1] (setting [2]), 76 µM; in assay [1] (setting [3]), 38 µM; in assay [1] (setting [4]) it was more than 100 µM. For the same molecule, the “IL-10 Mean % of Control” value in the assay on IL-10 is 442 % of control. In addition, in the assay with NK cell IFN-γ production, the concentration for a half-maximal effect (EC50) was found to be 16 nM. The “VEGF-, bFGF-, or HGF-induced HUVEC proliferation” value in assay [1] is recorded as “did not inhibit”.

With `O=C1CC[C@H](N2Cc3c(OCc4ccc(CN5CCOCC5)cc4)cccc3C2=O)C(=O)N1` [Test compound, (S)-3-[4-(4-morphlin-4-ylmethylbenzyloxy)-1-oxo-1,3-dihydro-isoindo-2-yl]piperidine-2,6-dione], the IC50 in the assay on MDC is 2.1 nM; in the assay on MIP-1α (setting [5]), 0.028 µM; in the assay on TNF-α it was 0.59 nM; in assay [1] (setting [2]), 52 µM; in assay [1] (setting [3]), 51 µM; in assay [1] (setting [4]) it was more than 100 µM. In addition, the “IL-10 Mean % of Control” value in the assay on IL-10 is 379 % of control. Also, the 50% effective concentration (EC50) with NK cell IFN-γ production came to 12 nM. Further, the “VEGF-, bFGF-, or HGF-induced HUVEC proliferation” value in assay [1] was “did not inhibit”. Moreover, the “concentrations with significant enhancement of proliferation” value in assay [1] (VEGF-treated HUVECs) was in the range of 1 to 10 µM.
